Laboratory results published in patent US20230257396A1, “MACROCYCLES AND THEIR USE” (BLOSSOMHILL THERAPEUTICS, INC., priority 2020, published 2023).

Columns and labels:
Assay in all cases: KINOMEscan kinase binding assay (Eurofins/DiscoveRx), % Ctrl
Conditions in all cases: 1 μM
[1] = target: T1, kinases (Homo sapiens, UniProt P00533, T790M)
T1 construct: purchased Eurofins/DiscoveRx; host or cells: E. coli BL21-derived host (T7 phage display) for most kinases; HEK-293 for the rest
Outline: (§1)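 Competition binding, 1 h RT: phage-tagged or HEK-293-expressed DNA-tagged kinase + immobilized ligand + compound. Eluate kinase by qPCR. % Ctrl = (test − positive ctrl)/(negative ctrl − positive ctrl) × 100; lower means stronger binding.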

[2] = test system: kinases
Outline: as §1

[3] = target: T2, kinases (Homo sapiens, UniProt P00533)
T2 construct: purchased Eurofins/DiscoveRx; host or cells: E. coli BL21-derived host (T7 phage display) for most kinases; HEK-293 for the rest
Outline: as §1

[4] = target: T3, kinases (Homo sapiens, UniProt P00533, L858R)
T3 construct: purchased Eurofins/DiscoveRx; host or cells: E. coli BL21-derived host (T7 phage display) for most kinases; HEK-293 for the rest
Outline: as §1

[5] = target: T4, kinases (Homo sapiens, UniProt P10721, A829P)
T4 construct: purchased Eurofins/DiscoveRx; host or cells: E. coli BL21-derived host (T7 phage display) for most kinases; HEK-293 for the rest
T4 sequence (P10721 26-976 A829P): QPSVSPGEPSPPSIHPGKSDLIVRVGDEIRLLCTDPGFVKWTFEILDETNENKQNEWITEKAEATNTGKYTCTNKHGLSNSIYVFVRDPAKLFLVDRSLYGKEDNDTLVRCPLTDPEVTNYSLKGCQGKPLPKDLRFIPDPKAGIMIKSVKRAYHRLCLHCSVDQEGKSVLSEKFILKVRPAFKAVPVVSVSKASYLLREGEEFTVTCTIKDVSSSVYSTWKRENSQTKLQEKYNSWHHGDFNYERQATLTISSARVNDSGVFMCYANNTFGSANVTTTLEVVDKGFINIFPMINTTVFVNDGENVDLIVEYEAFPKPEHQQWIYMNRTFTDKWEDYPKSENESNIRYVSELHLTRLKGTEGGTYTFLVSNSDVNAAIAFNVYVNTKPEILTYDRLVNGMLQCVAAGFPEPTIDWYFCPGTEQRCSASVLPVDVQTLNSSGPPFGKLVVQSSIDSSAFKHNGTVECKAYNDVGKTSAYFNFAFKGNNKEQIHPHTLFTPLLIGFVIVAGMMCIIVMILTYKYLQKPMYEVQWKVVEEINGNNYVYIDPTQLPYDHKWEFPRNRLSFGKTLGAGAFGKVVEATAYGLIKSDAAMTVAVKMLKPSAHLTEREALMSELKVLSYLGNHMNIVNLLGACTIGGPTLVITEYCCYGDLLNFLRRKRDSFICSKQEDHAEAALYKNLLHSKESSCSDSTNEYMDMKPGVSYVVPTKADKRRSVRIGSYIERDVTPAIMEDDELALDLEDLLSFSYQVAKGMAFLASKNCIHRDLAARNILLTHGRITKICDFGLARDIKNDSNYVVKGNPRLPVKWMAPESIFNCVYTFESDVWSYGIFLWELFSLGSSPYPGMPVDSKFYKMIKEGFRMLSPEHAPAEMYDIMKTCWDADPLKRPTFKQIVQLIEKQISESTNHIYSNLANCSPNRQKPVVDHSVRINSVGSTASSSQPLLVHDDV
Outline: as §1

[6] = target: T5, kinases (Homo sapiens, UniProt P00519, Y253F)
T5 construct: purchased Eurofins/DiscoveRx; host or cells: E. coli BL21-derived host (T7 phage display) for most kinases; HEK-293 for the rest
Outline: as §1

Compound	% Ctrl, EGFR(T790M) ([1]; EGFR(T790M)) [% Ctrl]	% Ctrl, EGFR(L747-E749del, A750P) ([2]; EGFR(L747-E749del, A750P)) [% Ctrl]	% Ctrl, EGFR(L747-S752del, P753S) ([2]; EGFR(L747-S752del, P753S)) [% Ctrl]	% Ctrl, EGFR(L747-T751del, Sins) ([2]; EGFR(L747-T751del, Sins)) [% Ctrl]	% Ctrl, FLT3(ITD) ([2]; FLT3(ITD)) [% Ctrl]	% Ctrl, FLT3(ITD, D835V) ([2]; FLT3(ITD, D835V)) [% Ctrl]	% Ctrl, FLT3(ITD, F691L) ([2]; FLT3(ITD, F691L)) [% Ctrl]	% Ctrl, EGFR ([3]; EGFR) [% Ctrl]	% Ctrl, EGFR(L858R) ([4]; EGFR(L858R)) [% Ctrl]	% Ctrl, KIT(A829P) ([5]; KIT(A829P)) [% Ctrl]	% Ctrl, ABL1(Y253F)-phosphorylated ([6]; ABL1(Y253F)-phosphorylated) [% Ctrl]	further results
Cc1cc2c([nH]1)/C=C1\C(=O)Nc3ccc(nc31)-c1ccccc1OCCCNC2=O [Ex.22, [3a(4)Z]-6-methyl-9,10,11,12-tetrahydro-1,18-(ethanediylidene)dipyrrolo[3,2-g:3′,4′-j][1,5,12]benzoxadiazacyclopentadecine-3,8(2H,5H)-dione]	57	73	95	81	100	71	100	64	67	100	68	–
Cc1cc2c([nH]1)/C=C1\C(=O)Nc3ccc(cc31)-c1ccnn1CCOCCNC2=O [Ex.39, [19a(20)Z]-2-methyl-6,7,9,10-tetrahydro-1H-15,17-(ethanediylidene)pyrazolo[1,5-d]dipyrrolo[3,4-h:2′,3′-k][1,4,14]oxadiazacyclohexadecine-4,19(5H,18H)-dione]	99	68	66	60	89	17	27	77	64	99	98	–
Cc1cc2c([nH]1)/C=C1\C(=O)Nc3cnc(nc31)N(C)CCCOCCN(C)C2=O [Ex.71, [17a(18)Z]-2,5,12-trimethyl-6,7,9,10,11,12-hexahydro-1H-13,15-(azenometheno)dipyrrolo[3,2-f:3′,4′-i][1,4,11,13]oxatriazacyclohexadecine-4,17(5H,16H)-dione]	100	92	100	67	91	100	100	95	9	100	91	–
Cc1cc2c([nH]1)/C=C1\C(=O)Nc3ccc(cc31)OCCOCCN(C)C2=O [Ex.91, [16a(17)Z]-2,5-dimethyl-6,7,9,10-tetrahydro-1H-12,14-(ethanediylidene)dipyrrolo[3,2-i:3′,4′-l][1,4,7]dioxazacyclopentadecine-4,16(5H,15H)-dione]	82	100	94	68	2.1	0	0	99	100	32	7.8	–
Cc1cc2c([nH]1)/C=C1\C(=O)Nc3ccc(cc31)CN(C)C(=O)COCCNC2=O [Ex.111, [17a(18)Z]-2,11-dimethyl-6,7,11,12-tetrahydro-1H-13,15-(ethanediylidene)dipyrrolo[3,2-f:3′,4′-i][1,4,14]oxadiazacyclohexadecine-4,10,17(5H,9H,16H)-trione]	68	83	100	59	6.9	0.45	5.8	74	78	100	58	–
Cc1cc2c([nH]1)/C=C1\C(=O)Nc3cnc(cc31)-c1cnn(C)c1COCCNC2=O [Ex.123, [3a(4)Z]-6,14-dimethyl-10,11,13,14-tetrahydro-2H-17,1-(azenometheno)pyrazolo[4,3-m]dipyrrolo[3,2-f:3′,4′-i][1,4]oxazacyclopentadecine-3,8(5H,9H)-dione]	100	9	100	74	93	100	39	98	94	100	100	–
Cc1cc2c([nH]1)/C=C1\C(=O)Nc3ccc(cc31)-c1ccnn1CCOCCN(C)C2=O [Ex. 41, [19a(20)Z]-2,5-dimethyl-6,7,9,10-tetrahydro-1H-15,17-(ethanediylidene)pyrazolo[1,5-d]dipyrrolo[3,4-h:2′,3′-k][1,4,14]oxadiazacyclohexadecine-4,19(5H,18H)-dione]	36	87	78	77	13	0.8	0.35	62	93	45	49	–
Cc1cc2c([nH]1)/C=C1\C(=O)Nc3ccc(cc31)-c1ccnn1CCNCCNC2=O [Ex. 43, [19a(20)Z]-2-methyl-5,6,7,8,9,10-hexahydro-15,17-(ethanediylidene)pyrazolo[1,5-g]dipyrrolo[3,4-k:2′,3′-n][1,4,7]triazacyclohexadecine-4,19(1H,18H)-dione]	100	89	86	85	100	38	47	61	97	77	80	–
Cc1cc2c([nH]1)/C=C1\C(=O)Nc3cnc(cc31)-c1cn[nH]c1CNCCN(C)C2=O [Ex. 55, [3a(4)Z]-6,9-dimethyl-9,10,11,12,13,14-hexahydro-17,1-(azenometheno)pyrazolo[4,3-m]dipyrrolo[3,2-f:3′,4′-i][1,4]diazacyclopentadecine-3,8(2,5H)-dione]	–	–	–	–	–	–	–	–	–	–	–	% Ctrl, EGFR(T790M) ([1]; target EGFR(T790M)): 70 % Ctrl; % Ctrl, EGFR(L747-E749del, A750P) ([2]; target EGFR(L747-E749del, A750P)): 82 % Ctrl; % Ctrl, EGFR(L747-S752del, P753S) ([2]; target EGFR(L747-S752del, P753S)): 56 % Ctrl; % Ctrl, EGFR(L747-T751del, Sins) ([2]; target EGFR(L747-T751del, Sins)): 66 % Ctrl; % Ctrl, FLT3(ITD) ([2]; target FLT3(ITD)): 0.3 % Ctrl; % Ctrl, FLT3(ITD, D835V) ([2]; target FLT3(ITD, D835V)): 1.2 % Ctrl; % Ctrl, FLT3(ITD, F691L) ([2]; target FLT3(ITD, F691L)): 0.1 % Ctrl; % Ctrl, EGFR ([3]; target EGFR): 59 % Ctrl; % Ctrl, EGFR(L858R) ([4]; target EGFR(L858R)): 88 % Ctrl; % Ctrl, KIT(A829P) ([5]; target KIT(A829P)): 39 % Ctrl; % Ctrl, ABL1(Y253F)-phosphorylated ([6]; target ABL1(Y253F)-phosphorylated): 3.1 % Ctrl
